Experimental data from article PMC11018795, “The regulatory relationship between NAMPT and PD-L1 in cancer and identification of a dual-targeting inhibitor” (EMBO Molecular Medicine, 2024).
Values joined by “and” are separate entries in the source; they are usually repeats but may differ in a detail not shown here. Identical values can stand only once.

Key:
[1] = tested on: NAD+ content of A2780 cells; test: NAD+ assay in A2780 cells; assay type: cell-based, human; conditions: for Relative NAD+: 0 nM = 100
Experimental: NAD^+ assays were performed to quantify the total NAD^+ content. NAD^+ assay was performed using the NAD/NADH Assay Kit (ab65348; Abcam) according to the manufacturer’s recommended protocol.

PD-L1 = molecular target: T1, PD-L1 (Homo sapiens, UniProt Q9NZQ7); test: Cellular thermal shift assay (CETSA), PD-L1, A2780 cells; assay type: binding; conditions: for Relative band intensity (PD-L1): LZFPN-90 20 nM
T1 construct: endogenous in cells; host or cells: A2780
Experimental: The cells were resuspended in 1× PBS supplemented with protease inhibitors (Roche) and then divided into strip tubes for 30 min. The tubes were centrifuged at 15,000× g at 4 °C for 15 min. After centrifugation, the supernatant was divided into DMSO and LZFPN-90 (20 nM) groups, and incubated at room temperature for 30 min. According to standard procedures (38 °C, 42 °C, 46 °C, 50 °C, 54 °C, 58 °C, 62 °C, 66 °C), each temperature group was heated for 3 min, incubated at room temperature for 3 min. Then centrifuged at 20,000× g for 25 min, the supernatant was collected, 1× loading buffer was added, the mixture was heated in a metal bath at 95 °C for 10 min, and the amount of non-denatured protein per sample was quantified by western blotting.

HCT-116 cells [2] = test: Apoptosis assay (Annexin V/PI), HCT-116; assay type: cell-based, human; conditions: HCT116
Experimental: The cells are treated with the compounds. After 48–72 h, the cells were harvested and washed twice with cold PBS. The cells were then stained with Annexin V/propidium iodide (PI) (BD Biosciences) and examined using a NovoCyte Flow Cytometer (ACEA Biosciences). Data were analyzed using NovoExpress software (ACEA Biosciences).

LLC cells = test: Cell cycle analysis, LLC; assay type: cell-based, mouse
Description: Supplement 44321_2024_51_MOESM5_ESM.zip/Fig4-D.xlsx, sheet "Sheet1" | column: G0/G1; S; G2/M

LLC Vector cells = test: Cell viability 72 h, LLC Vector (Fig 4C); assay type: cell-based, mouse
Experimental: In vitro cell viability was determined using a Cell Counting Kit-8 (MCE) assay. Cells (5 × 10^3/well) were seeded in 96-well culture plates. After 24 h, they were incubated with various concentrations of the test compounds for 48–72 h at 37 °C in a 5% CO2 incubator. Next, 10% of the CCK-8 solution was added to each well, and the plates were incubated for an additional 4 h at 37 °C. The optical density of each well was measured at 450 nm using a multimode plate reader (Molecular Devices, San Jose, CA, USA). Cells (5 × 10^3/well) were seeded into a 96-well plate and cultured at 37 °C in a 5% CO2 incubator. […] At the final time point, 10 μl MTT solution (5 mg/ml, Sigma, Burlington, MA, USA) was added to each well and incubated for an additional 4 h at 37 °C in a 5% CO2 incubator. Then,100 μl of DMSO was added to each well and mixed thoroughly. Optical density was measured at 492 nm using a microplate reader (Molecular Devices, San Jose, CA, USA).

A20 tumors = test: A20 tumor-bearing Balb/c nude mice; assay type: in vivo, mouse; conditions: 20 mg/kg i.p., Fig 6E
Experimental: The 4–6 weeks-old Balb/c mice and Balb/c nude mice were maintained in a specific pathogen-free (SPF) facility. A20 cells (5 × 10^6 cells in 0.2 ml phosphate-buffered saline) were subcutaneously injected into the right armpit of Balb/c mice and Balb/c nude mice. Tumor volume was measured using calipers every 2 days and calculated using the following formula: (long diameter) × (short diameter)^2/2. […] Balb/c nude mice were treated with LZFPN-90 (20 mg/kg). After 12 days of administration, the animals were anesthetized, and tumors were excised. Some fresh tumor tissues were subjected to immune cell isolation. Tissues were either fixed in 4% formalin or stored at −80 °C until further analysis.

HCT-116 cells [3] = test: MTT assay 48 h, HCT-116; assay type: cell-based, human
Experimental: Cells (5 × 10^3/well) were seeded into a 96-well plate and cultured at 37 °C in a 5% CO2 incubator. […] At the final time point, 10 μl MTT solution (5 mg/ml, Sigma, Burlington, MA, USA) was added to each well and incubated for an additional 4 h at 37 °C in a 5% CO2 incubator. Then,100 μl of DMSO was added to each well and mixed thoroughly. Optical density was measured at 492 nm using a microplate reader (Molecular Devices, San Jose, CA, USA).

T1 sequence (Q9NZQ7 19-290): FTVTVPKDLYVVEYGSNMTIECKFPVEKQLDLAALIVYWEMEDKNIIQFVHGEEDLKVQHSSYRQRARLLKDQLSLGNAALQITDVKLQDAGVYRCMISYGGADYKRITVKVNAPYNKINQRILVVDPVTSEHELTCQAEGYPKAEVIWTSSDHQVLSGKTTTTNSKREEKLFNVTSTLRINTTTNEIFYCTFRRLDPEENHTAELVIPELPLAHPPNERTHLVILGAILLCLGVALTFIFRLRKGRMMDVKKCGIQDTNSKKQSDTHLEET

CCN(CC)CCCOc1cccc(-c2cccc3c2CCN3C(=O)c2ncc(CNC(=NC#N)Nc3ccncc3)s2)c1 [LZFPN-90]
effect on NAD+ content ([1]; A2780 cells): concentration-dependent reduction in the NAD^+ content | Relative NAD+ ([1]; LZFPN-90 1.25 nM): 35.1891 and 32.3761 | Relative NAD+ ([1]; LZFPN-90 2.5 nM): 12.5247 and 11.2894 | Relative NAD+ ([1]; LZFPN-90 5 nM): 8.877 and 6.867 | Relative NAD+ ([1]; LZFPN-90 10 nM): 2.626 and 2.637 | thermal stability of PD-L1 (PD-L1; LZFPN-90 20 nM vs blank group): the stability of NAMPT and PD-L1 increased | Relative band intensity (PD-L1) (PD-L1; 38 ℃): 0.8 and 0.83 | Relative band intensity (PD-L1) (PD-L1; 42 ℃): 0.79 and 0.8 | Relative band intensity (PD-L1) (PD-L1; 46 ℃): 0.86 and 0.82 | Relative band intensity (PD-L1) (PD-L1; 50 ℃): 0.7 and 0.76 | Relative band intensity (PD-L1) (PD-L1; 54 ℃): 0.56 and 0.61 | Relative band intensity (PD-L1) (PD-L1; 58 ℃): 1 and 1.07 | Relative band intensity (PD-L1) (PD-L1; 62 ℃): 0.96 and 0.92 | Relative band intensity (PD-L1) (PD-L1; 66 ℃): 0.36 and 0.31 | Apoptotic cells (sum of both Annexin-positive quadrants) (HCT-116 cells [2]; LZ90 15 nM): 9.8 and 11.59 and 10.81 | Apoptotic cells (sum of both Annexin-positive quadrants) (HCT-116 cells [2]; LZ90 60 nM): 14.57 and 17.94 and 17.19 | Apoptotic cells (sum of both Annexin-positive quadrants) (HCT-116 cells [2]; LZ90 240 nM): 13.96 and 15.34 and 15.58 | Cell cycle G0/G1 (LLC cells; LZ90 20): 32.7 and 33.42 and 33.1 | Cell cycle G2/M (LLC cells; LZ90 20): 8.23 and 9.12 and 10.84 | Cell cycle S (LLC cells; LZ90 20): 58.16 and 55.72 and 58.65 | Cell cycle G0/G1 (LLC cells; LZ90 40): 31.17 and 30.64 and 32.74 | Cell cycle G2/M (LLC cells; LZ90 40): 10.63 and 9.6 and 10.7 | Cell cycle S (LLC cells; LZ90 40): 59.19 and 58.63 and 56.62 | Cell cycle G0/G1 (LLC cells; LZ90 60): 31.65 and 30.97 and 32.77 | Cell cycle G2/M (LLC cells; LZ90 60): 11.3 and 9.97 and 11.14 | Cell cycle S (LLC cells; LZ90 60): 58.36 and 57.86 and 55.9 | Relative viability (LLC Vector cells; LZ90 0.25 (nM), 0 = 100): 89.7901 and 87.9705 and 96.555 | Relative viability (LLC Vector cells; LZ90 1): 87.3413 and 95.1235 and 101.277 | Relative viability (LLC Vector cells; LZ90 4): 85.618 and 92.9893 and 92.8571 | Relative viability (LLC Vector cells; LZ90 16): 83.9984 and 83.5338 and 75.7769 | Relative viability (LLC Vector cells; LZ90 64): 79.4506 and 87.9576 and 68.4293 | Relative viability (LLC Vector cells; LZ90 256): 70.355 and 68.0766 and 71.9586 | TIR (relative tumor weight) (A20 tumors): 46.2% | Relative inhibition (敏感性) (HCT-116 cells [3]): 0.61
